Results on one molecule are retold here after paper PMC3611663 (American heart journal, 2011).

Where two headings read alike, the source gives them in different places. Bridge positions count the residues as written; N and C are the ends. Square brackets hold non-standard residues; d marks the D form. Peptide text beside a SMILES is read from it. hArg = N=C(N)NCCCC[C@H](N)C(=O)O; Mpa = O=C(O)CCS

The subject of one series is GP IIb/IIIa receptor. Particulars: PRIDE study; cited from earlier work.
Series [1] is classed as in vivo, human.

For `N=C(N)NCCCC[C@@H]1NC(=O)CCSSC[C@@H](C(N)=O)NC(=O)[C@@H]2CCCN2C(=O)[C@H](Cc2c[nH]c3ccccc23)NC(=O)[C@H](CC(=O)O)NC(=O)CNC1=O` [Eptifibatide] ([Mpa][hArg]GDWPC-NH2; disulfide 1-7 (inferred); C-terminus assumed), the “Plasma concentration necessary to achieve >80% occupancy of the GP IIb/IIIa receptor” value in the series with GP IIb/IIIa receptor was “approximately 1600 ng/mL”. The “Slope of plasma concentration versus body weight (ANCOVA regression)” value is on record as 20.6 in series [1] (ABW dosing), 6.9 in series [1] (IBW dosing) and −6.4 in series [1] (standard dosing). In addition, the “Patients with plasma Eptifibatide >1600 ng/mL” value in series [1] (ABW-based dosing (N=22)) was 14 (64) no. (%); in series [1] (IBW-based dosing (N=20)) it was 2 (10) no. (%); in series [1] (standard dosing (N=19)), 10 (53) no. (%). The figures for the “Patients with plasma Eptifibatide ≤1600 ng/mL” value in series [1] (ABW-based dosing (N=22)), in series [1] (IBW-based dosing (N=20)) and in series [1] (standard dosing (N=19)) were 8 (36) no. (%), 18 (90) no. (%) and 9 (47) no. (%), respectively.
